Data reported in patent US20250049791A1, “Synthesis of MEK7 Inhibitors and methods of Use Thereof” (Northwestern University, priority 2023, published 2025).
“Also recorded” adds a separate entry of the source.

Experiments:
[1] = test system: T-ALL cell lines (JURKAT, KOPT-K1, RPMI-8402, ALL-SIL); experiment: Cytotoxicity assay (CellTiter-Glo), T-ALL cell lines; type: cell-based; settings: 48 hours
MEK1/2 = experiment: ScanEDGE competition binding, MEK1/2; settings: ScanEDGE screen
Text: The ScanEDGE assay, completed by DiscoverX (Eurofins) is a proprietary active site-directed competition binding assay. Compounds that bind the kinase active site prevent kinase binding to the immobilized ligand, reducing the amount of kinase captured on the solid support. Hits are identified by measuring the amount of kinase captured in experimental vs, control samples by a qPCR method that detects an associated DNA label. According to data provided by Eurofins, a typical hit at 5-10% of control signal in a 1 μM assay as shown above is generally associated with a KD in the range of 100-1,000 nM. Readings with greater than 35% of control signal correspond to exceeding large dissociation constants.

MEK3 = target: T1, MEK3 (Homo sapiens, UniProt P46734); experiment: Additional selectivity assay, MEK3 (FIG. 9); type: binding
T1 sequence (P46734 1-347): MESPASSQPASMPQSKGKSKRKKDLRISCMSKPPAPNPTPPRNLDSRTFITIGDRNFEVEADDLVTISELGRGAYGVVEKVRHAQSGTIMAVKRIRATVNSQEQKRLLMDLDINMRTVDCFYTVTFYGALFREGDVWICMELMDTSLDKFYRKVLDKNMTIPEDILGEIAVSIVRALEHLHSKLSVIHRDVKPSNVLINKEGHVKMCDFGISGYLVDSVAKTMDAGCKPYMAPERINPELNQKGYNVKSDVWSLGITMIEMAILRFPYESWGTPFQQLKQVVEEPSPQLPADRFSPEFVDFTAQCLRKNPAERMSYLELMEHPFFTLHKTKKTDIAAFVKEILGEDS

[2] = target: T2, full-length MAP2K7 N-terminal GST fusion protein (Homo sapiens, UniProt O14733); experiment: Whole-protein LC/TOF-MS of covalent labeling; type: binding; settings: 2 equiv inhibitor, 5° C., 12 hours
T2 construct: purchased Carna Biosciences 07-147-10; host or cells: E. coli
T2 sequence (O14733 1-419): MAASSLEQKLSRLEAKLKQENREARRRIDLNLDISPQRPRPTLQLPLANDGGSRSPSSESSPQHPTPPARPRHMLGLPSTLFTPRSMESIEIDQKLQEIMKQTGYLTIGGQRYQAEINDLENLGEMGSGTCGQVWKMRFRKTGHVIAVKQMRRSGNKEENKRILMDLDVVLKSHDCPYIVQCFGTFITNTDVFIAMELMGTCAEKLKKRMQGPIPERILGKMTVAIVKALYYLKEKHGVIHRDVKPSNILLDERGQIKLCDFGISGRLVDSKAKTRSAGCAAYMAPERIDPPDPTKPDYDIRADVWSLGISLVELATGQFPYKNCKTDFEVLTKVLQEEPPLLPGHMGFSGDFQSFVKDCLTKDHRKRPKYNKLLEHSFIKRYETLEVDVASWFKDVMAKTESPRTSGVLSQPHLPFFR
Description: The construct was full-length MAP2K7 (1-419 amino acids of accession number NP_660186.1), which was prepared by the manufacturer as an N-terminal GST-fusion protein using an E. coli expression system. The construct was then purified by glutathione sepharose chromatography and shipped in a storage buffer containing 50 mM Tris —HCl, 150 mM NaCl, 0.05 mM Brij-35, 1 mM DTT, and 10% glycerol at pH=7.5.
Each whole-protein MS experiment was run with a 10 uL injection of a sample containing 50 μg of protein diluted to a final volume of 100 μL. The construct aliquots were first diluted to the appropriate volume with an aqueous solution of 150 mM NaCl and 50 mM Tris —HCl. The diluted samples were loaded on a Pierce spin column (ThermoFisher Scientific catalog number: 87777) to remove Brij-35 and finally eluted with the appropriate volume of the same buffer. Finally, 1.3 uL of DMSO (vehicle) or a 1 mM DMSO solution of covalent inhibitor was added, and the resulting roughly 101 uL solutions were incubated at 5° C. for 12 hours. The incubates were injected (10 uL) on an Agilent 6201 MSLC-TOF (ESI) with a protein column. A 10 minute water:acetonitrile gradient was performed, eluting recombinant proteins of interest in roughly 5 minutes. Masses were deconvoluted using MassHunter BioConfirm (maximum entropy).

activity on MEK1/2 (MEK1/2): no appreciable activity
activity/binding at MEK3 (MEK3): inactive; also recorded: lack of binding
SMILES: O=C(CCl)Nc1cccc(Oc2cc(NCc3ccccc3)ncn2)c1 [Compound 25, N-(3-((6-(benzylamino)pyrimidin-4-yl)oxy)phenyl)-2-chloroacetamide]
dose-response cytotoxicity [1]: marked cytotoxicity
covalent labeling of MAP2K7, whole-protein MS [2]: covalent engagement; also recorded: Complete labeling
